Test results as given in patent publication US20190185518A9, “WARHEAD-CONTAINING PEPTIDOMIMETIC MACROCYCLES AS MODULATORS OF BFL-1” (AILERON Therapeutics, Inc., priority 2017, published 2019).
Where two headings read alike, the source gives them in different places. Positions of bridges follow the written chain, without caps; N, C: chain ends. Non-standard residues stand in square brackets, D forms with d. Residues, ends and D or L forms follow the SMILES beside them. R8 = C=CCCCCCC[C@@](C)(N)C(=O)O; Cit = NC(=O)NCCC[C@H](N)C(=O)O; S5 = C=CCCC[C@](C)(N)C(=O)O; Aib = CC(C)(N)C(=O)O

Experiments:
[1] = molecular target: Mcl-1, Bcl-xL, Bcl-2; test: BCL-2 family selectivity profile; assay type: binding
Excerpt: The binding spectrum of stapled BIM BH3 peptides were tuned for BCL-2 family selectivity. […] ABT-199 is venetoclax, and † represents values reported in the literature.

[2] = molecular target: Mcl-1 (Homo sapiens, UniProt Q07820); test: Ki determination for Mcl-1 (BCL-2 family binding spectrum)
Procedure, shortened: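 Competitive fluorescence polarization assay in which compounds displace a fluoresceinated peptidomimetic macrocycle tracer from Mcl-1. Affinity constants were obtained by nonlinear regression.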

[3] = molecular target: T1, MCL-1/BAK protein-protein interaction (Homo sapiens, UniProt Q07820); test: MCL-1 displacement study (BAK FRET signal); assay type: cell-based; details: 10 μM and 20 μM
T1 construct: host or cells: Raji
Procedure: BIM peptidomimetic macrocycles were tested for displacement of MCL-1 from a BAK fluorescence resonance energy transfer (FRET) peptide.
FIG. 19 compares normalized FRET signals of samples to determine the samples' effects in disrupting MCL-1/BAK protein-protein interactions.

[4] = molecular target: Bcl-xL (Homo sapiens, UniProt Q07817); test: Ki determination for Bcl-xL (BCL-2 family binding spectrum); details: TABLE 6; read-out: Bcl-xL Ki
Procedure, shortened: (§1)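 Competitive fluorescence polarization: compounds (1 nM–1 mM) with 25 nM fluoresceinated peptidomimetic macrocycle and 50 nM protein in 140 mM NaCl, 50 mM Tris-HCl pH 7.4, 30 min at room temperature. Constants from nonlinear regression.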

[5] = molecular target: Bcl-2 (Homo sapiens, UniProt P10415); test: Ki determination for Bcl-2 (BCL-2 family binding spectrum); details: TABLE 6; read-out: Bcl-2 Ki
Procedure, shortened: as §1

[6] = test system: SK-MEL-28 melanoma cells; test: Cell viability (CellTiter-Glo), SK-MEL-28; assay type: cell-based; details: 40 μM
Procedure: (§2) Cancer cells were cultured using a standard culture medium containing 10% fetal bovine serum (FBS) and penicillin-streptomycin (A375P: DMEM; SK-MEL-2, SK-MEL-28: EMEM). Cells were plated in 96-well plates (5×10^3 cells per well) and, after overnight incubation, treated with the indicated concentrations of Stapled Peptides in the corresponding medium supplemented with 5% FBS for the indicated durations. Cell viability and caspase-3/7 activation was measured using CellTiter-Glo and Caspase-Glo 3/7 chemiluminescence reagents (Promega), respectively. Luminescence was detected by a microplate reader (Spectramax M5, Molecular Devices).

[7] = test system: A375-P melanoma cells; test: Caspase-3/7 activation (Caspase-Glo 3/7), A375-P; assay type: cell-based; details: A375-P cells, 40 μM
Procedure: as §2

[8] = test system: SK-MEL-2 melanoma cells; test: Caspase-3/7 activation (Caspase-Glo 3/7), SK-MEL-2; assay type: cell-based; details: SK-MEL-2 cells, 40 μM
Procedure: as §2

[9] = test system: SK-MEL-28 melanoma cells; test: Caspase-3/7 activation (Caspase-Glo 3/7), SK-MEL-28; assay type: cell-based; details: SK-MEL-28 cells, 40 μM
Procedure: as §2

[10] = test system: SK-MEL-2 melanoma cells; test: Cell viability (CellTiter-Glo), SK-MEL-2; assay type: cell-based; details: 40 μM
Procedure: as §2

[11] = test system: ABT-199 resistant Burkitt lymphoma Raji cells; test: WST-1 anti-proliferative activity in Raji cells; assay type: cell-based, Human; details: TABLE 9; Raji cell proliferation
Excerpt: WST-1 is a cell proliferation reagent that is used in colorimetric assays designed to measure the relative proliferation rates of cells in culture. The assay is based on the conversion of the tetrazolium salt WST-1 into a colored dye by mitochondrial dehydrogenase enzymes. The soluble salt is released into the media. Within a given time period, the reaction produces a color change that is directly proportional to the amount of mitochondrial dehydrogenase in a culture. The WST-1 assay measures the net metabolic activity of cells.

[12] = test system: A375-P melanoma cells; test: Cell viability (CellTiter-Glo), A375-P; assay type: cell-based; details: 40 μM
Procedure: as §2

Bcl-2, sequence (P10415 whole entry, species assumed): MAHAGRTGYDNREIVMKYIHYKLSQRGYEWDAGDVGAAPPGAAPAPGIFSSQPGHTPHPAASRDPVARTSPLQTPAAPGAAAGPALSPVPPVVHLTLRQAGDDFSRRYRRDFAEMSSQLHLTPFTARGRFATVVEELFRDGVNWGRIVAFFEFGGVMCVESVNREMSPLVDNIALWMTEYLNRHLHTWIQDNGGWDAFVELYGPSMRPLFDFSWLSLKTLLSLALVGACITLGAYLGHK
Bcl-xL, sequence (Q07817 whole entry, species assumed): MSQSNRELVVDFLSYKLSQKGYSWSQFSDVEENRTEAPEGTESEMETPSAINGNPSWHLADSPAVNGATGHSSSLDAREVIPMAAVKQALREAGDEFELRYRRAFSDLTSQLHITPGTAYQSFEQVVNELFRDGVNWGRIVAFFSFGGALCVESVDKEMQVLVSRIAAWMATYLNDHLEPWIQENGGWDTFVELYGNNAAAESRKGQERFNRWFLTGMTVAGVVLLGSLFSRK
Mcl-1, sequence (Q07820 whole entry, species assumed): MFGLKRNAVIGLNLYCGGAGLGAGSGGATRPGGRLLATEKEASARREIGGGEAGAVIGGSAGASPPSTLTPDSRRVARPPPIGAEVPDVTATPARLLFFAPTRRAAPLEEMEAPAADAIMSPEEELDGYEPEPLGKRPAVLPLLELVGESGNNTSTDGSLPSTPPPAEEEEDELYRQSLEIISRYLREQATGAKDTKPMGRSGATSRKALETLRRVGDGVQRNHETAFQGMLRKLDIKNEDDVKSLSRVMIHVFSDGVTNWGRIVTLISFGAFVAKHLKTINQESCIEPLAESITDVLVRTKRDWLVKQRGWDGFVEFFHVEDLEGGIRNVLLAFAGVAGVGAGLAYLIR
T1 sequence (Q07820 whole entry): as the sequence (Q07820 whole entry, species assumed) above

Row | SMILES | Profile ([1]; TABLE 6) | Ki [4] [nM] | Ki ([2]; TABLE 6, read-out: Mcl-1 Ki) [nM] | Ki [5] [nM] | further results
1 | CC[C@H](C)[C@H](NC(=O)[C@H](Cc1c[nH]c2ccccc12)NC(=O)[C@H](CCCNC(=N)N)NC(C)=O)C(=O)N[C@@H](C)C(=O)N[C@@H](CCC(N)=O)C(=O)N[C@@H](C)C(=O)N[C@@H](CC(C)C)C(=O)N[C@@H](CCCNC(=N)N)C(=O)N[C@@]1(C)CCCC=CCCC[C@@](C)(C(=O)N[C@@H](CC(C)C)C(=O)N[C@@H](CC(N)=O)C(=O)NC(C)(C)C(=O)N[C@@H](Cc2ccccc2)C(=O)N[C@@H](Cc2ccc(O)cc2)C(=O)N[C@@H](C)C(=O)N[C@@H](Cc2c[nH]cn2)C(=O)N[C@@H](Cc2c[nH]cn2)C(N)=O)NC(=O)[C@H](CC(=O)O)NC(=O)CNC(=O)[C@H]([C@@H](C)CC)NC1=O [Peptide #14] (Ac-RWIAQALR[S5]IGD[S5]LN[Aib]FYAHH-NH2; staple 9-13) |  |  |  |  | Ki of MCL-1 compared with Ki of BCL-xL or BCL-2 ([1]; TABLE 7 assay): drastically lower; Profile ([1]; TABLE 8): Mcl-1 selective; Ki ([2]; TABLE 7, read-out: MCL-1 Ki): 11 nM; disrupting the MCL-1/BAK protein-protein interaction (normalized FRET signal) [3]: highly effective
2 | CC[C@H](C)[C@H](NC(C)=O)C(=O)N[C@@H](Cc1c[nH]c2ccccc12)C(=O)N[C@H](C(=O)N[C@@H](C)C(=O)N[C@@H](C)C(=O)N[C@@H](C)C(=O)N[C@@H](CC(C)C)C(=O)N[C@@H](CCCNC(=N)N)C(=O)N[C@]1(C)CCCCCCC=CCCC[C@@](C)(C(=O)N[C@@H](Cc2ccc(O)cc2)C(=O)N[C@@H](Cc2ccc(O)cc2)C(=O)N[C@@H](C)C(N)=O)NC(=O)[C@H](CC(N)=O)NC(=O)[C@H](Cc2ccccc2)NC(=O)[C@H](CCC(N)=O)NC(=O)[C@H](CC(=O)O)NC(=O)CNC(=O)[C@H]([C@@H](C)CC)NC1=O)[C@@H](C)CC [compound 4] (Ac-IWIAAALR[R8]IGDQFN[S5]YYA-NH2; staple 9-16) | Pan-selective | 4 | 6 | 22 | 
3 | CC[C@H](C)[C@H](NC(C)=O)C(=O)N[C@@H](Cc1c[nH]c2ccccc12)C(=O)N[C@H](C(=O)N[C@@H](C)C(=O)N[C@@H](CCC(N)=O)C(=O)N[C@@H](C)C(=O)N[C@@H](CC(C)C)C(=O)N[C@@H](CCCNC(N)=O)C(=O)N[C@]1(C)CCCCCCC=CCCC[C@@](C)(C(=O)N[C@@H](Cc2ccc(O)cc2)C(=O)N[C@@H](Cc2ccc(O)cc2)C(=O)N[C@@H](C)C(N)=O)NC(=O)[C@H](CC(N)=O)NC(=O)[C@H](Cc2ccccc2)NC(=O)[C@H](CCC(N)=O)NC(=O)[C@H](CC(=O)O)NC(=O)CNC(=O)[C@H]([C@@H](C)CC)NC1=O)[C@@H](C)CC [compound 6] (Ac-IWIAQAL[Cit][R8]IGDQFN[S5]YYA-NH2; staple 9-16) | Mcl-1 selective | 28.8 | 1.7 | 88.2 | 
4 | CC[C@H](C)[C@H](NC(C)=O)C(=O)N[C@@H](Cc1c[nH]c2ccccc12)C(=O)N[C@H](C(=O)N[C@@H](C)C(=O)N[C@@H](CCC(N)=O)C(=O)N[C@@H](C)C(=O)N[C@@H](CC(C)C)C(=O)N[C@@H](CCCNC(=N)N)C(=O)N[C@]1(C)CCCCCCC=CCCC[C@@](C)(C(=O)N[C@@H](Cc2ccc(O)cc2)C(=O)N[C@@H](Cc2ccc(O)cc2)C(=O)N[C@@H](C)C(N)=O)NC(=O)[C@H](CC(N)=O)NC(=O)[C@H](C)NC(=O)[C@H](C)NC(=O)[C@H](CC(=O)O)NC(=O)CNC(=O)[C@H]([C@@H](C)CC)NC1=O)[C@@H](C)CC [compound 7] (Ac-IWIAQALR[R8]IGDAAN[S5]YYA-NH2; staple 9-16) | Mcl-1 selective | 402 | 7.5 | 140 | 
5 | CC[C@H](C)[C@H](NC(C)=O)C(=O)N[C@@H](Cc1c[nH]c2ccccc12)C(=O)N[C@H](C(=O)N[C@@H](C)C(=O)N[C@@H](CCC(N)=O)C(=O)N[C@@H](C)C(=O)N[C@@H](CC(C)C)C(=O)N[C@@H](CCCNC(=N)N)C(=O)N[C@]1(C)CCCCCCC=CCCC[C@@](C)(C(=O)N[C@@H](Cc2ccc(O)cc2)C(=O)N[C@@H](Cc2ccc(O)cc2)C(=O)N[C@@H](C)C(N)=O)NC(=O)[C@H](CC(N)=O)NC(=O)[C@H](Cc2ccccc2)NC(=O)[C@H](CCC(N)=O)NC(=O)[C@H](CC(=O)O)NC(=O)CNC(=O)[C@H](C)NC1=O)[C@@H](C)CC [compound 10] (Ac-IWIAQALR[R8]AGDQFN[S5]YYA-NH2; staple 9-16) | Bcl-xL/Bcl-2 selective | 1.9 | 122 | 4.8 | 
6 | CC[C@H](C)[C@H](NC(C)=O)C(=O)N[C@@H](Cc1c[nH]c2ccccc12)C(=O)N[C@H](C(=O)N[C@@H](C)C(=O)N[C@@H](CCC(N)=O)C(=O)N[C@@H](C)C(=O)N[C@@H](CC(C)C)C(=O)N[C@@H](CCCNC(=N)N)C(=O)N[C@]1(C)CCCCCCC=CCCC[C@@](C)(C(=O)N[C@@H](Cc2ccc(O)cc2)C(=O)N[C@@H](Cc2ccc(O)cc2)C(=O)N[C@@H](C)C(N)=O)NC(=O)[C@H](CC(N)=O)NC(=O)[C@H](Cc2ccccc2)NC(=O)[C@H](CCC(=O)O)NC(=O)[C@H](CC(=O)O)NC(=O)CNC(=O)[C@H]([C@@H](C)CC)NC1=O)[C@@H](C)CC [Peptide #1] (Ac-IWIAQALR[R8]IGDEFN[S5]YYA-NH2; staple 9-16) | Pan-selective | 1.4 | 1.8 | 3.2 | 
7 | CC[C@H](C)[C@H](NC(C)=O)C(=O)N[C@@H](Cc1c[nH]c2ccccc12)C(=O)N[C@H](C(=O)N[C@@H](C)C(=O)N[C@@H](CCC(N)=O)C(=O)N[C@@H](CCC(=O)O)C(=O)N[C@@H](CC(C)C)C(=O)N[C@@H](CCCNC(=N)N)C(=O)N[C@@]1(C)CCCC=CCCC[C@@](C)(C(=O)N[C@@H](Cc2ccccc2)C(=O)N[C@@H](CC(N)=O)C(=O)N[C@@H](C)C(=O)N[C@@H](Cc2ccc(O)cc2)C(=O)N[C@@H](Cc2ccc(O)cc2)C(=O)N[C@@H](C)C(=O)N[C@@H](CCCNC(=N)N)C(=O)N[C@@H](CCCNC(=N)N)C(N)=O)NC(=O)[C@H](CC(=O)O)NC(=O)CNC(=O)[C@H]([C@@H](C)CC)NC1=O)[C@@H](C)CC [BIM SAHBA1] |  |  |  |  | % cell viability ([6]; SK-MEL-28, 5% serum): had no effect on % viability; proliferation ([6]; SK-MEL-28 cells): neither BIM SAHBA1 nor Aileron peptide 1 affected proliferation; Profile ([1]; TABLE 8): Pan-selective; apoptosis induction [7]: neither BIM SAHBA1 nor Aileron peptide 1 affected proliferation and apoptosis induction; apoptosis induction [8]: neither BIM SAHBA1 nor Aileron peptide 1 affected proliferation and apoptosis induction; apoptosis induction [9]: neither BIM SAHBA1 nor Aileron peptide 1 affected proliferation and apoptosis induction; % cell viability ([10]; SK-MEL-2, 5% serum): had no effect on % viability; proliferation ([10]; SK-MEL-2 cells): neither BIM SAHBA1 nor Aileron peptide 1 affected proliferation; IC50 [11]: 23700 nM; proliferation ([12]; A375-P cells): neither BIM SAHBA1 nor Aileron peptide 1 affected proliferation; % cell viability ([12]; A375-P, 5% serum): had no effect on % viability
